Common to all, as to assay: biochemical
Set-up in all cases: DiscoverX KinomeScan competition binding assay across human kinases; per cent of control at 10 and 100 uM

One experiment deals with T1, ABL1-phosphorylated (Homo sapiens, UniProt P00519).
T1 construct: phosphorylated
To be noted: competition binding, % of control. The essentials: (§1)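 Binding is expressed as %control, normalised between positive and negative control signals. The compound (levosimendan) was tested at 10 μM and 100 μM in the DiscoverX KinomeScan competition binding format against human kinases.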

In the next experiment the target is ANKK1 (Homo sapiens, UniProt Q8NFD2). To be noted: competition binding, % of control; read-out: Percent Control (100 uM Levosimendan). The essentials: as §1
Another experiment has as its target CAMK1 (Homo sapiens, UniProt Q14012). To be noted: competition binding, % of control; read-out: Percent Control (100 uM Levosimendan). Put shortly: as §1
For another experiment, the target named is CSNK2A2 (Homo sapiens, UniProt P19784). As to conditions: competition binding, % of control; read-out: Percent Control (100 uM Levosimendan). The essentials:
as §1

A further experiment concerns the target T2, CTK (Homo sapiens, UniProt P42679).
T2 construct: gene MATK
As to conditions: competition binding, % of control; read-out: Percent Control (100 uM Levosimendan). Put shortly: as §1

Another experiment has as its target T3, DCAMKL1 (Homo sapiens, UniProt O15075).
T3 construct: gene DCLK1
To be noted: competition binding, % of control; read-out: Percent Control (100 uM Levosimendan). The essentials:
as §1

A further experiment addresses EPHB4 (Homo sapiens, UniProt P54760). To be noted: competition binding, % of control; read-out: Percent Control (100 uM Levosimendan). The essentials:
as §1

The next experiment deals with FLT3-autoinhibited (Homo sapiens, UniProt P36888). As to conditions: competition binding, % of control; read-out: Percent Control (100 uM Levosimendan). Put shortly:
as §1

For a further experiment, the target named is GAK (Homo sapiens, UniProt O14976). To be noted: competition binding, % of control. The essentials: as §1
For a further experiment, the target named is GSK3B (Homo sapiens, UniProt P49841). To be noted: competition binding, % of control; read-out: Percent Control (100 uM Levosimendan). The essentials: as §1
The target in another experiment is T4, MKK7 (Homo sapiens, UniProt O14733).
T4 construct: gene MAP2K7
As to conditions: competition binding, % of control; read-out: Percent Control (100 uM Levosimendan). Put shortly:
as §1

A further experiment addresses T5, MLK3 (Homo sapiens, UniProt Q16584).
T5 construct: gene MAP3K11
To be noted: competition binding, % of control; read-out: Percent Control (100 uM Levosimendan). The essentials:
as §1

In the next experiment the target is PDGFRB (Homo sapiens, UniProt P09619). To be noted: competition binding, % of control. Put shortly:
as §1

In another experiment the target is PRKG1 (Homo sapiens, UniProt Q13976). To be noted: competition binding, % of control; read-out: Percent Control (100 uM Levosimendan). The essentials: as §1
The next experiment concerns the target PRKX (Homo sapiens, UniProt P51817). As to conditions: competition binding, % of control; read-out: Percent Control (100 uM Levosimendan). Put shortly: as §1
The target in experiment [1] is T6, RSK4(Kin.Dom.1-N-terminal) (Homo sapiens, UniProt Q9UK32).
T6 construct: gene RPS6KA6; Kin.Dom.1-N-terminal
As to conditions: competition binding, % of control; read-out: Percent Control (100 uM Levosimendan). The essentials: as §1

Another experiment addresses TGFBR1 (Homo sapiens, UniProt P36897). As to conditions: competition binding, % of control. Put shortly: as §1
The target of another experiment is T7, TRKA (Homo sapiens, UniProt P04629).
T7 construct: gene NTRK1
To be noted: competition binding, % of control; read-out: Percent Control (100 uM Levosimendan). Put shortly:
as §1

A further experiment deals with TYRO3 (Homo sapiens, UniProt Q06418). To be noted: competition binding, % of control; read-out: Percent Control (100 uM Levosimendan). Put shortly:
as §1

The mark [2] stands for this setting: read-out: Percent Control (10 uM Levosimendan).
Setting [3] is: read-out: Percent Control (100 uM Levosimendan).

The results in this text go back to article PMC6576746, “Rational discovery of dual-indication multi-target PDE/Kinase inhibitor for precision anti-cancer therapy using structural systems pharmacology” (PLoS Computational Biology, 2019).

T1 sequence (P00519 whole entry): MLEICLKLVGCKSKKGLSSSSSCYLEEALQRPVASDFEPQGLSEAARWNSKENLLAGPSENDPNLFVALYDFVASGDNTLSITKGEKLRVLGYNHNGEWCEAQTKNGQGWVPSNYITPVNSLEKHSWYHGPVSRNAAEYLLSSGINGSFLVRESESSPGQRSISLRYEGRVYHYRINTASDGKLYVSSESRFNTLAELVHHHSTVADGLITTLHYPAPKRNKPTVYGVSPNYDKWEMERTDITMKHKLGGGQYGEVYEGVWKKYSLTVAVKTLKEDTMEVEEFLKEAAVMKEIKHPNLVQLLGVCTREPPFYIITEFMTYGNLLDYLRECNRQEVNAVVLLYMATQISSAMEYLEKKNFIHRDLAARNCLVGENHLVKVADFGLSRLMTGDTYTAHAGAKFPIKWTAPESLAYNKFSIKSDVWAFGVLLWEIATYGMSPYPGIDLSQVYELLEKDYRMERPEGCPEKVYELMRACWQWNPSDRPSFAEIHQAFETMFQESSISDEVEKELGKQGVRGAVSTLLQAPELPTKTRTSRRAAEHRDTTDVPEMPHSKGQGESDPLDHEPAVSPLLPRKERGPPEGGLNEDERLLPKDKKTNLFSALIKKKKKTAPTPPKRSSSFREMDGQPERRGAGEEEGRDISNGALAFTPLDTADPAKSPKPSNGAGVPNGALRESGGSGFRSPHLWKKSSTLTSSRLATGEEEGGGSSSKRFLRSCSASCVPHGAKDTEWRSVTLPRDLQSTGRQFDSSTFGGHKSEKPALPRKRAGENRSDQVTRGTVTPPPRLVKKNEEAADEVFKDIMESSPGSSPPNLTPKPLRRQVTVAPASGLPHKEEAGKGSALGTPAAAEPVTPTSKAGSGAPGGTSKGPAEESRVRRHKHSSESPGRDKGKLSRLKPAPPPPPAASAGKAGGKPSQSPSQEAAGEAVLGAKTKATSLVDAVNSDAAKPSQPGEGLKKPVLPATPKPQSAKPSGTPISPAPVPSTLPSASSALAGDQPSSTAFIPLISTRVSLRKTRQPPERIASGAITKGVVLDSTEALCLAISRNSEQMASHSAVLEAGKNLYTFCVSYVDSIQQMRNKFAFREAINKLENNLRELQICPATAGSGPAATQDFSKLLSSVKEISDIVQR
PDGFRB, sequence (P09619 whole entry): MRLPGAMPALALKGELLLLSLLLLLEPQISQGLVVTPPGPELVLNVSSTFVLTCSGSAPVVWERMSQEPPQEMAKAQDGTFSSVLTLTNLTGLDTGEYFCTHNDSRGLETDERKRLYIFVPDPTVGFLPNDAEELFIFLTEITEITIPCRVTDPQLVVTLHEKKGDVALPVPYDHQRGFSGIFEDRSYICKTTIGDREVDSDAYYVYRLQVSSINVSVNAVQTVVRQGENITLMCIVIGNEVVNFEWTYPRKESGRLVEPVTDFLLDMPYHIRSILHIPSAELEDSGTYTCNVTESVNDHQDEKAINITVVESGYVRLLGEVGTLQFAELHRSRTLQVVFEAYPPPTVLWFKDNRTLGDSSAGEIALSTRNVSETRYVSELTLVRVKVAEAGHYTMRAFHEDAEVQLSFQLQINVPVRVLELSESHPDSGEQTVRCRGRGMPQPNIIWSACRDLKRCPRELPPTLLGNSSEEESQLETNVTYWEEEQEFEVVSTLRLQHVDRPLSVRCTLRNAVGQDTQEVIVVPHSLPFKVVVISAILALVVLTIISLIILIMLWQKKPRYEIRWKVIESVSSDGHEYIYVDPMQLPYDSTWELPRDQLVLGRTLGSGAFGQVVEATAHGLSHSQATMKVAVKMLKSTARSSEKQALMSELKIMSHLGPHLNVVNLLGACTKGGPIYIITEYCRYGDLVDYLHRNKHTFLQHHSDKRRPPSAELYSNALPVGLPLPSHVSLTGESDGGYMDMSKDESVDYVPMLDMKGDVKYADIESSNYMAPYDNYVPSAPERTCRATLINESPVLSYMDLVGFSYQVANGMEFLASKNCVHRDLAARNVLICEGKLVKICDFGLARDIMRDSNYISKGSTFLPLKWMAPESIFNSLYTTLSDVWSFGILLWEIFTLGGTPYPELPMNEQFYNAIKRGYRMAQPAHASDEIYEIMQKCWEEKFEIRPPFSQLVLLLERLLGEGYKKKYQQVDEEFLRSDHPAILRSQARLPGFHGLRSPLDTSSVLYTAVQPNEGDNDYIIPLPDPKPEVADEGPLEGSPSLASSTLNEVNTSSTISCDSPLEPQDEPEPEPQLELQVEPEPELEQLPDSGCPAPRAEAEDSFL
GAK, sequence (O14976 whole entry): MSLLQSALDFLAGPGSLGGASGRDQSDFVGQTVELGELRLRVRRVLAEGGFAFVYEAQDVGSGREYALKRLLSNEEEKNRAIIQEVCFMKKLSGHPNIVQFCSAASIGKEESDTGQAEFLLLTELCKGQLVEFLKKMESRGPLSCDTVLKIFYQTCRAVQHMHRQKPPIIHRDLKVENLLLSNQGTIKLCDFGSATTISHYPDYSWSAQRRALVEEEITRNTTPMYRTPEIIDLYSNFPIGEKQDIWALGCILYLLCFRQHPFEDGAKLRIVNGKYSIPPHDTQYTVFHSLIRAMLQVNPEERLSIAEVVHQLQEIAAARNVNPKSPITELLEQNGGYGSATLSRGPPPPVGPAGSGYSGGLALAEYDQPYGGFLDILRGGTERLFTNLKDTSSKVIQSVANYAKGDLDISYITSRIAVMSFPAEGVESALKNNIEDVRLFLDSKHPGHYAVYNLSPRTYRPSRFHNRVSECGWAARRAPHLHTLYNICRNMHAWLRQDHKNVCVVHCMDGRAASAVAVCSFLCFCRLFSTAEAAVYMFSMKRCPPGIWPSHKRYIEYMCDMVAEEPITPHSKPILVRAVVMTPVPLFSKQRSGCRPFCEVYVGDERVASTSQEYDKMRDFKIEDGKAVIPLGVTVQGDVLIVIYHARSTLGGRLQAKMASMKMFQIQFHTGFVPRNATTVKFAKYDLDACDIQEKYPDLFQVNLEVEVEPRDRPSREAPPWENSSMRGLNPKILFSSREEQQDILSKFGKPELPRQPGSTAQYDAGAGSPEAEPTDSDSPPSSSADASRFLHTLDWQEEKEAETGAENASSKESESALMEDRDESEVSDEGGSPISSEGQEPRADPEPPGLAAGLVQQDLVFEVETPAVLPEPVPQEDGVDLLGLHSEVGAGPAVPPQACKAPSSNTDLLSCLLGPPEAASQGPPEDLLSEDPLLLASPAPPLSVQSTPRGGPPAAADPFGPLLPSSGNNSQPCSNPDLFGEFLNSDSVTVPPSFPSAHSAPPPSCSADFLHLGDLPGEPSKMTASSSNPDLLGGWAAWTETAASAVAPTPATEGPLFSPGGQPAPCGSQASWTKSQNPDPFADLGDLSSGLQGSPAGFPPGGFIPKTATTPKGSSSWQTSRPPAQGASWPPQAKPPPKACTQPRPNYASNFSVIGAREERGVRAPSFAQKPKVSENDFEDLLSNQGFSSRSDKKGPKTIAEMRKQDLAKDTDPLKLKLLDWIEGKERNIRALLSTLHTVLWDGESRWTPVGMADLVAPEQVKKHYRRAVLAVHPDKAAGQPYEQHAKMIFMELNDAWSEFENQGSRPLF
TGFBR1, sequence (P36897 whole entry): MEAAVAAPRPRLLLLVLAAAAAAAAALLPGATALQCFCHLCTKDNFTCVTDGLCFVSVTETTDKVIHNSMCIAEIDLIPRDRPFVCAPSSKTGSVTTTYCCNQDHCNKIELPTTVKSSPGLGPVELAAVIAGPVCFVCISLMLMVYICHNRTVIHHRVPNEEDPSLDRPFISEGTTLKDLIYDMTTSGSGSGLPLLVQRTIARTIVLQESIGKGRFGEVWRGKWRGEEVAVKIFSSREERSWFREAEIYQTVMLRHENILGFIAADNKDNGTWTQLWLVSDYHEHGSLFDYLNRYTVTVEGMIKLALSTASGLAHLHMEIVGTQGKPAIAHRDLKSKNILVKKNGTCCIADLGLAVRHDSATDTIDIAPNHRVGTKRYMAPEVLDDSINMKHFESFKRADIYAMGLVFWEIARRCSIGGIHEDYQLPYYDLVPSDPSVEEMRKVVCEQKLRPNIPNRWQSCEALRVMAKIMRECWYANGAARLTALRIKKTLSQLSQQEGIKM
TYRO3, sequence (Q06418 whole entry): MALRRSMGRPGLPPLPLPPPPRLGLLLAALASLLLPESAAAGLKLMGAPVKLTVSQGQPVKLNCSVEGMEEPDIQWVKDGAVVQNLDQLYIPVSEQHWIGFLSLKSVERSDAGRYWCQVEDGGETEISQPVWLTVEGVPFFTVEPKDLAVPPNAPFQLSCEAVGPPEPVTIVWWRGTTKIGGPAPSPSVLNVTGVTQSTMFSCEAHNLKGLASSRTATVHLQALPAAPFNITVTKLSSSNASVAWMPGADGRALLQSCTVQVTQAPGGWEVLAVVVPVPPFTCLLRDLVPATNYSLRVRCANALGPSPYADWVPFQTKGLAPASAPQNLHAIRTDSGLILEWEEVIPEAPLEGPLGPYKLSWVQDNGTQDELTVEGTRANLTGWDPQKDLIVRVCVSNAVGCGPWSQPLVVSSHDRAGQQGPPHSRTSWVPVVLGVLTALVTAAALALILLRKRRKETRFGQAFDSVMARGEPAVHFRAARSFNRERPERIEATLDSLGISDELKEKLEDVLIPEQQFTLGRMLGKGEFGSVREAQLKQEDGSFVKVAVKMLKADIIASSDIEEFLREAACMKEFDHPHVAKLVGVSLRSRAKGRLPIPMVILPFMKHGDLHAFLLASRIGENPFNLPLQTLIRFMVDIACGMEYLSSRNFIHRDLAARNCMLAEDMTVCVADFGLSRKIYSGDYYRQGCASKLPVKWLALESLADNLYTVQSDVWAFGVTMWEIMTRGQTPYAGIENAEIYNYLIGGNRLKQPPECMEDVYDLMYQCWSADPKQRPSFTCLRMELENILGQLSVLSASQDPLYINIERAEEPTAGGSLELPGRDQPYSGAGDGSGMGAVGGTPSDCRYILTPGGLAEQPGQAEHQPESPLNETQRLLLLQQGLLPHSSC

Consider `C[C@@H]1CC(=O)NN=C1c1ccc(NN=C(C#N)C#N)cc1` [levosimendan], for which the remaining binding at 10 µM on ABL1-phosphorylated (setting [2]) was found to be 100%; at GAK (setting [2]), 24%; at PDGFRB (setting [2]) it was 58%; on TGFBR1 (setting [2]), 89%. The remaining binding at 100 µM on ABL1-phosphorylated (setting [3]) is 37%; at ANKK1, 77%; on CAMK1, 77%; at CSNK2A2, 73%; at CTK, 72%; on DCAMKL1, 67%. Further, the remaining binding at 100 µM on EPHB4 amounted to 85%; on FLT3-autoinhibited, 98%; at GAK (setting [3]), 16%; on GSK3B, 100%; on MKK7, 100%; on MLK3, 73%. Further, the remaining binding at 100 µM came out at 12% on PDGFRB (setting [3]); 64% on PRKG1; 76% on PRKX; 100% in experiment [1]; 48% at TGFBR1 (setting [3]); 65% at TRKA. In addition, at TYRO3, the remaining binding at 100 µM was determined as 94%.
